According to patent US20220362282A1, “COMPOSITIONS AND METHODS FOR TREATING EYE DISEASES” (ADS THERAPEUTICS LLC, priority 2019, published 2022):

Experiments:
[1] = cited from earlier work; for Ability to form soluble complex with cholesterol in aqueous solution: 37° C., CDs 1.0 × 10^−2 M; for Increase in Absorbance (600 nm) Due to Cholesterol Dissolved by CDs: Aqueous solution at 37° C., concentration of CDs 1.0 × 10^−2 M
pterygium patients = experiment: Safety (adverse events) of 10% HP-β-CD vehicle in the Phase 2 pterygium clinical trial; conditions: 10% as vehicle in the Phase 2 pterygium clinical trial
Method: The data was derived from the stage 2 of the Phase 2 clinical trial in pterygium patients who were topically administered 10% HP-β-CD as the vehicle of the testing article. The patients were treated for 4 weeks with three-time a day dosing and then followed up for another 20 weeks after the stop of treatment. The safety evaluation included the 20 weeks of non-treatment period.
All safety analyses were conducted on the safety population. MedDRA nomenclature was used to code adverse events. The number and percent of patients reporting adverse events were tabulated based on preferred terms and/or system organ class. Summary tables were generated for all adverse events regardless of causality as well as for treatment-related adverse events.

[2] = system: Patients with Primary or Recurrent Pterygium; experiment: Phase 2a clinical trial in pterygium patients: Pterygium Symptom and Life Quality (PSLQ) questionnaire scores; format: in vivo, human
From the text: 2-HP-β-CD Formulation I was used as vehicle.
A trend of effects also remained after the stop of treatment at weeks 8, 16, and 24. The other questions didn't generate statistically significant effects.
These ocular symptoms are often observed in MGD patients. Scores of these symptoms were graded by patients as part of PSLQ questionnaires.

[3] = Screening of CDs and CD derivatives for ability to dissolve cholesterol in water (HPLC); format: physicochemical; conditions: for Concentrations of Cholesterol in CDs Solution: 5 days shaking at ambient; for Ability to dissolve cholesterol in water: CD 1, 10, 20% (w/v)
Method: Purpose: To determine the level of cholesterol that can be dissolved in water when 10 different CDs and their derivatives were added at three concentrations.
All CD solutions were prepared with starting 20% (w/v) solutions by accurately adding about 800 mg CDs in 4 milliliter water, 1% and 10% were diluted from this 20% solution to 2 mL for each sample preparation experiment.
Cholesterol was added accurately to all CD water solutions at about 40 mg/mL or about 80 mg per 2 mL. This amount of cholesterol was enough to fully saturate the CD solutions with white settlements or floating or both. All samples were conditioned at ambient by shaking using a rotator for 5 days.
After the equilibration with shaking for 5 days at ambient, the clear or semi-clear portion was filtered with 0.2 μm filter. 50 μL of the filtered solution was diluted with 450 μL methanol (10 X) for HPLC analysis. NOVAPAK phenyl column (7.6 cm by 3.9 mm I.D.) was used with a mobile phase of acetonitrile: water (70:30) at a flow rate of 0.5 ml/min and detection at UV at 210 nm.

[4] = Baseline, Modified Intent-to-Treat Population, N = 23
[5] = Week 2, 10% (w/w) TID for 4 weeks, N = 23
[6] = Week 4, 10% (w/w) TID for 4 weeks, N = 23
[7] = Week 8 (after treatment period), N = 23
[8] = Week 16 (after treatment period), N = 23
[9] = Week 24 (after treatment period), N = 23

## 2-Hydroxypropyl-beta-cyclodextrin [2-HP-β-CD]
[1]
  Ability to form soluble complex with cholesterol in aqueous solution: only a weak ability
  Increase in Absorbance (600 nm) Due to Cholesterol Dissolved by CDs: 0.01
Pterygium patients
  Safety profile: excellent safety profile
[2]; 2-HP-β-CD-treated group, N = 23
  PSLQ scores compared to the baseline: significant improvements
[2]; 10%, pterygium patients with vs without dry eye condition
  Magnitude of reduction in PSLQ ocular symptom score, dry eye vs no dry eye patients: statistically significant bigger
[2]; [4]
  PSLQ Average Ocular Symptom Score, Mean (SD): 0.88 (0.81)
  PSLQ Average Quality of Life Impact Score, Mean (SD): 0.57 (0.92)
  PSLQ Average Vision-Related Functioning Score, Mean: 0.57
  PSLQ Overall Average Score, Mean (SD): 0.70 (0.66)
[2]; [5]
  PSLQ Average Ocular Symptom Score, Change from Baseline, Mean (SD): −0.36 (0.69)
  PSLQ Average Quality of Life Impact Score, Change from Baseline, Mean (SD): −0.19 (0.39)
  PSLQ Average Vision-Related Functioning Score, Change from Baseline, Mean: −0.27
  PSLQ Overall Average Score, Change from Baseline, Mean (SD): −0.28 (0.45)
[2]; [6]
  PSLQ Average Ocular Symptom Score, Change from Baseline, Mean (SD): −0.46 (0.71)
  PSLQ Average Quality of Life Impact Score, Change from Baseline, Mean (SD): −0.19 (0.50)
  PSLQ Average Vision-Related Functioning Score, Change from Baseline, Mean: −0.48
  PSLQ Overall Average Score, Change from Baseline, Mean (SD): −0.35 (0.51)
[2]; [7]
  PSLQ Average Ocular Symptom Score, Change from Baseline, Mean (SD): −0.39 (0.84)
  PSLQ Average Quality of Life Impact Score, Change from Baseline, Mean (SD): −0.17 (0.52)
  PSLQ Average Vision-Related Functioning Score, Change from Baseline, Mean: −0.43
  PSLQ Overall Average Score, Change from Baseline, Mean (SD): −0.30 (0.55)
[2]; [8]
  PSLQ Average Ocular Symptom Score, Change from Baseline, Mean (SD): −0.29 (0.79)
  PSLQ Average Quality of Life Impact Score, Change from Baseline, Mean (SD): −0.13 (0.68)
  PSLQ Average Vision-Related Functioning Score, Change from Baseline, Mean: −0.23
  PSLQ Overall Average Score, Change from Baseline, Mean (SD): −0.20 (0.64)
[2]; [9]
  PSLQ Average Ocular Symptom Score, Change from Baseline, Mean (SD): −0.33 (0.90)
  PSLQ Average Quality of Life Impact Score, Change from Baseline, Mean (SD): −0.15 (0.59)
  PSLQ Average Vision-Related Functioning Score, Change from Baseline, Mean: −0.11
  PSLQ Overall Average Score, Change from Baseline, Mean (SD): −0.22 (0.73)
[3]; CD 1% (w/v) in water
  Concentrations of Cholesterol in CDs Solution: 10 µg/mL
[3]
  Ability to dissolve cholesterol in water: substantial ability
[3]; CD 10% (w/v) in water
  Concentrations of Cholesterol in CDs Solution: 820 µg/mL
[3]; CD 20% (w/v) in water
  Concentrations of Cholesterol in CDs Solution: 2980 µg/mL

## 2-hydroxypropyl-alpha-cyclodextrin [HP-ACD, reference compound]
[3]
  Ability to dissolve cholesterol in water: no detectable cholesterol dissolving activity

## 2-hydroxypropyl-gamma-cyclodextrin [HP-GCD, reference compound]
[3]
  Ability to dissolve cholesterol in water: extremely low levels
[3]; CD 10% (w/v) in water
  Concentrations of Cholesterol in CDs Solution: 3 µg/mL
[3]; CD 20% (w/v) in water
  Concentrations of Cholesterol in CDs Solution: 11 µg/mL

## OC[C@H]1O[C@H](O[C@H]2[C@H](O)[C@@H](O)[C@@H](OC[C@H]3O[C@@H]4O[C@H]5[C@H](O)[C@@H](O)[C@@H](O[C@H]6[C@H](O)[C@@H](O)[C@@H](O[C@H]7[C@H](O)[C@@H](O)[C@@H](O[C@H]8[C@H](O)[C@@H](O)[C@@H](O[C@H]9[C@H](O)[C@@H](O)[C@@H](O[C@H]%10[C@H](O)[C@@H](O)[C@@H](O[C@H]3[C@H](O)[C@H]4O)O[C@@H]%10CO)O[C@@H]9CO)O[C@@H]8CO)O[C@@H]7CO)O[C@@H]6CO)O[C@@H]5CO)O[C@@H]2CO)[C@H](O)[C@@H](O)[C@@H]1O [6-AM-BCD, 6-O-alpha-maltosyl-beta-cyclodextrin, reference compound]
[3]; CD 1% (w/v) in water
  Concentrations of Cholesterol in CDs Solution: 30 µg/mL
[3]
  Ability to dissolve cholesterol in water: about half lower
[3]; CD 10% (w/v) in water
  Concentrations of Cholesterol in CDs Solution: 2570 µg/mL
[3]; CD 20% (w/v) in water
  Concentrations of Cholesterol in CDs Solution: 3380 µg/mL

## OC[C@H]1O[C@@H]2O[C@H]3[C@H](O)[C@@H](O)[C@@H](O[C@H]4[C@H](O)[C@@H](O)[C@@H](O[C@H]5[C@H](O)[C@@H](O)[C@@H](O[C@H]6[C@H](O)[C@@H](O)[C@@H](O[C@H]7[C@H](O)[C@@H](O)[C@@H](O[C@H]1[C@H](O)[C@H]2O)O[C@@H]7CO)O[C@@H]6CO)O[C@@H]5CO)O[C@@H]4CO)O[C@@H]3CO [ACD, alpha-cyclodextrin]
[1]
  Ability to form soluble complex with cholesterol in aqueous solution: do not form soluble complexes
  Increase in Absorbance (600 nm) Due to Cholesterol Dissolved by CDs: 0

## OC[C@H]1O[C@@H]2O[C@H]3[C@H](O)[C@@H](O)[C@@H](O[C@H]4[C@H](O)[C@@H](O)[C@@H](O[C@H]5[C@H](O)[C@@H](O)[C@@H](O[C@H]6[C@H](O)[C@@H](O)[C@@H](O[C@H]7[C@H](O)[C@@H](O)[C@@H](O[C@H]8[C@H](O)[C@@H](O)[C@@H](O[C@H]1[C@H](O)[C@H]2O)O[C@@H]8CO)O[C@@H]7CO)O[C@@H]6CO)O[C@@H]5CO)O[C@@H]4CO)O[C@@H]3CO [BCD, beta-cyclodextrin]
[1]
  Ability to form soluble complex with cholesterol in aqueous solution: do not form soluble complexes

## COC[C@H]1O[C@@H]2O[C@H]3[C@H](O)[C@@H](OC)[C@@H](O[C@H]4[C@H](O)[C@@H](OC)[C@@H](O[C@H]5[C@H](O)[C@@H](OC)[C@@H](O[C@H]6[C@H](O)[C@@H](OC)[C@@H](O[C@H]7[C@H](O)[C@@H](OC)[C@@H](O[C@H]8[C@H](O)[C@@H](OC)[C@@H](O[C@H]1[C@H](O)[C@H]2OC)O[C@@H]8COC)O[C@@H]7COC)O[C@@H]6COC)O[C@@H]5COC)O[C@@H]4COC)O[C@@H]3COC [DM-BCD, heptakis (2,6-di-O-methyl)-beta-cyclodextrin]
[1]
  Ability to form soluble complex with cholesterol in aqueous solution: strong ability
  Increase in Absorbance (600 nm) Due to Cholesterol Dissolved by CDs: 0.336
[3]; CD 1% (w/v) in water
  Concentrations of Cholesterol in CDs Solution: 190 µg/mL
[3]
  Ability to dissolve cholesterol in water: the best
[3]; CD 10% (w/v) in water
  Concentrations of Cholesterol in CDs Solution: 5130 µg/mL
[3]; CD 20% (w/v) in water
  Concentrations of Cholesterol in CDs Solution: 10430 µg/mL

## OC[C@H]1O[C@@H]2O[C@H]3[C@H](O)[C@@H](O)[C@@H](O[C@H]4[C@H](O)[C@@H](O)[C@@H](O[C@H]5[C@H](O)[C@@H](O)[C@@H](O[C@H]6[C@H](O)[C@@H](O)[C@@H](O[C@H]7[C@H](O)[C@@H](O)[C@@H](O[C@H]8[C@H](O)[C@@H](O)[C@@H](O[C@H]9[C@H](O)[C@@H](O)[C@@H](O[C@H]1[C@H](O)[C@H]2O)O[C@@H]9CO)O[C@@H]8CO)O[C@@H]7CO)O[C@@H]6CO)O[C@@H]5CO)O[C@@H]4CO)O[C@@H]3CO [GCD, gamma-cyclodextrin]
[1]
  Ability to form soluble complex with cholesterol in aqueous solution: do not form soluble complexes
  Increase in Absorbance (600 nm) Due to Cholesterol Dissolved by CDs: 0

## COC(=O)c1ccc2c(c1)NC(=O)/C2=C(\Nc1ccc(N(C)C(=O)CN2CCN(C)CC2)cc1)c1ccccc1 [Nintedanib, reference compound]
[2]; pterygium patients with dry eye condition
  PSLQ ocular symptom score, Nintedanib 0.2% vs Vehicle: no statistically significant differences

## random methyl-beta-cyclodextrin [M-BCD]
[3]; CD 1% (w/v) in water
  Concentrations of Cholesterol in CDs Solution: 150 µg/mL
[3]
  Ability to dissolve cholesterol in water: the best
[3]; CD 10% (w/v) in water
  Concentrations of Cholesterol in CDs Solution: 6030 µg/mL
[3]; CD 20% (w/v) in water
  Concentrations of Cholesterol in CDs Solution: 14200 µg/mL

## sulfobutylated beta-cyclodextrin [SBE-BCD]
[3]; CD 1% (w/v) in water
  Concentrations of Cholesterol in CDs Solution: 2 µg/mL
[3]; CD 10% (w/v) in water
  Concentrations of Cholesterol in CDs Solution: 30 µg/mL
[3]; CD 20% (w/v) in water
  Concentrations of Cholesterol in CDs Solution: 150 µg/mL
